Measurements: PubChem BioAssay (NCI)
Where “and” joins values, the source holds several entries; their conditions need not be identical. Identical values can stand only once.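 Compound exposure: 48 hours, 5 concentrations, 96-well plates. GI50 marks 50% less growth. TGI is the concentration that stops growth completely.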

Tests used:
Assay in all cases: growth of human tumour cells (NCI), 48 h
[1] = test system: CAKI-1 renal
[2] = test system: MDA-MB-231 breast
[3] = test system: SNB-75 CNS
[4] = test system: UACC-62 melanoma
[5] = test system: T-47D breast
[6] = test system: SN12C renal
[7] = test system: HOP-92 NSCLC
[8] = test system: RXF 393 renal
[9] = test system: MOLT-4 leukemia
[10] = test system: HCT-116 colon

In the case of `CC12CCCC(O)C1CCC1=CC3(CCC12)SCCS3` (configuration not stated), the TGI [1] was over 10 µM, the TGI [2] was over 10 µM and the TGI [3] was over 10 µM. It also gave a TGI [4] of over 10 µM, a TGI [5] of over 10 µM and a TGI [6] of over 10 µM. It also gave a TGI [7] of over 10 µM.

`COC(=O)C1=NC(=S)NC(c2ccccc2)C1c1nc2ccccc2s1` (configuration not stated) was tested, and the TGI [8] was over 100 µM, the TGI [1] was over 100 µM and the TGI [3] was over 100 µM. For the same molecule, the TGI [4] was over 100 µM, the TGI [6] was over 100 µM and the TGI [7] was over 100 µM. It also gave a TGI [9] of over 100 µM and a TGI [10] of over 100 µM.

Work on `CCOC1=NC(=O)CC(c2ccccc2)S1` (configuration not stated) yielded a TGI [8] of over 100 µM, a TGI [1] of over 100 µM and a TGI [4] of over 100 µM. It also gave a TGI [6] of over 100 µM, a TGI [7] of over 100 µM and a TGI [9] of over 100 µM. It also gave a TGI [10] of over 100 µM.

Molecule `CCC[CH2][Sn]1([CH2]CCC)[O]C(=O)C(C(C)C)N=Cc2ccccc2[O]1` (configuration not stated) has a GI50 [8] of 0.0722 µM, a TGI [8] of 0.219 µM and a GI50 [1] of 0.136 µM. It also gave a TGI [1] of 0.47 µM, a GI50 [3] of 0.235 µM and a TGI [3] of 0.776 µM. The GI50 [4] was 0.244 µM, the TGI [4] was 0.693 µM and the GI50 [6] was 0.288 µM. The TGI [6] was 0.987 µM, the GI50 [7] was 0.131 µM and the TGI [7] was 0.442 µM. For the same molecule, the GI50 [9] was 0.236 µM, the TGI [9] was 1.04 µM and the GI50 [10] was 0.547 µM. The TGI [10] was 1.78 µM.

`Cc1ccc(Nc2nc3c(s2)C(=O)c2ccccc2C3=O)c(C)c1` was tested, and the TGI [8] was 29.6 µM, the TGI [1] was 29 µM and the TGI [3] was 30.1 µM. It also gave a TGI [4] of 29.5 µM, a TGI [6] of 31.1 µM and a TGI [7] of 22.9 µM. The TGI [9] was 23.4 µM.

With `O=C(O)CP(=S)(S)c1ccccc1` (configuration not stated) the TGI [8] was over 100 µM, the TGI [1] was over 100 µM and the TGI [4] was over 100 µM. For the same molecule, the TGI [6] was over 100 µM, the TGI [7] was over 100 µM and the TGI [9] was over 100 µM.

With `COC(=O)c1cccc2cccc(C(=O)Nc3ccc(C)cc3C)c12` the TGI [8] was over 100 µM, the TGI [1] was over 100 µM and the TGI [3] was over 100 µM. For the same molecule, the TGI [4] was over 100 µM, the TGI [6] was over 100 µM and the TGI [7] was over 100 µM. The TGI [9] was over 100 µM and the TGI [10] was over 100 µM.

Work on `CC(C)N(C(=O)C12CC3CC(CC(C3)C1)C2)C(C)C` yielded a TGI [8] of over 50 µM, a TGI [1] of over 50 µM and a TGI [3] of over 50 µM. For the same molecule, the TGI [4] was over 50 µM, the TGI [6] was over 50 µM and the TGI [7] was over 50 µM. The TGI [9] was over 50 µM and the TGI [10] was over 50 µM.

In the case of `CC(=O)OC[C@]12CC[C@H]3[C@@H](C[C@H]4O[C@]45[C@@H](O)C=CC(=O)[C@]35C)[C@@H]1CC[C@@H]2[C@H](C)[C@H]1CC(C)=C(C)C(=O)O1`, the GI50 [8] was 0.247 µM and 0.388 µM, the TGI [8] was 0.791 µM and 1.13 µM and the GI50 [1] was 0.385 µM and 0.266 µM. For the same molecule, the TGI [1] was 0.831 µM and 1.08 µM, the GI50 [3] was 0.261 µM and 0.264 µM and the TGI [3] was 0.953 µM and 1.25 µM. For the same molecule, the GI50 [4] was 0.481 µM and 0.479 µM, the TGI [4] was 1.58 µM and the GI50 [6] was 0.401 µM and 0.322 µM. For the same molecule, the TGI [6] was 0.943 µM and 1.16 µM, the GI50 [7] was 0.22 µM and 0.189 µM and the TGI [7] was 0.722 µM and 1.27 µM. The GI50 [9] was 0.289 µM and 0.191 µM, the TGI [9] was 0.878 µM and 0.615 µM and the GI50 [10] was 0.277 µM and 0.166 µM. The TGI [10] was 0.6 µM and 0.424 µM.

`COc1cc(OC(=O)c2c(O)cc(O)c(O)c2C)cc(C)c1C(=O)Oc1cc(C)c(C(=O)O)c(O)c1` was tested, and the TGI [8] was over 100 µM, the TGI [1] was over 100 µM and the TGI [3] was over 100 µM. For the same molecule, the TGI [4] was over 100 µM, the TGI [6] was over 100 µM and the TGI [7] was over 100 µM. For the same molecule, the TGI [9] was over 100 µM and the TGI [10] was over 100 µM.

For `CCOC(=O)c1cc(/C(=N\O)c2cc(OC)c(OC)c(OC)c2)n2cc(C)cc(C)c12`, the GI50 [8] was 1.95 µM, the TGI [8] was 5.26 µM and the GI50 [1] was 2.36 µM. The TGI [1] was over 100 µM, the GI50 [2] was 2.34 µM and the TGI [2] was 5.7 µM. For the same molecule, the GI50 [3] was 1.48 µM, the TGI [3] was 4.48 µM and the GI50 [6] was 3.86 µM. The TGI [6] was over 100 µM, the GI50 [7] was 2.26 µM and the TGI [7] was 7.08 µM. The GI50 [10] was 1.86 µM and the TGI [10] was 3.93 µM.

Molecule `CCOC(=O)CN=c1nc(SC)sc2c(C(=O)OCC)nc(Sc3ccccc3)n12` has a TGI [1] of over 100 µM, a TGI [4] of over 100 µM and a TGI [6] of over 100 µM. The TGI [7] was over 100 µM and the TGI [10] was over 100 µM.

For `O=C(O)CN(c1ccccc1)S(=O)(=O)c1ccccc1[N+](=O)[O-]`, the TGI [8] was over 100 µM, the TGI [1] was over 100 µM and the TGI [3] was over 100 µM. For the same molecule, the TGI [4] was over 100 µM, the TGI [6] was over 100 µM and the TGI [7] was over 100 µM. For the same molecule, the TGI [9] was over 100 µM.

`CCOC(=O)NC(=O)c1cn(CCOCCOC(=O)NCCCCCCNC(=O)OCCOCCn2cc(C(=O)NC(=O)OCC)c(=O)[nH]c2=O)c(=O)[nH]c1=O` gave a TGI [8] of over 100 µM, a TGI [3] of over 100 µM and a TGI [4] of over 100 µM. For the same molecule, the TGI [6] was over 100 µM, the TGI [7] was over 100 µM and the TGI [10] was over 100 µM.

With `COc1c2c(cc3nc4ccccc4nc13)CCC(C(C)(C)O)C2` (configuration not stated) the TGI [8] was over 100 µM, the TGI [1] was over 100 µM and the TGI [3] was over 100 µM. The TGI [4] was over 100 µM, the TGI [6] was over 100 µM and the TGI [7] was over 100 µM. The TGI [9] was over 100 µM and the TGI [10] was over 100 µM.

Work on `Cc1cc(C)nc(NS(=O)(=O)c2ccc(Nc3c4ccccc4nc4c(C(=O)Nc5ccc(S(=O)(=O)Nc6cc(C)on6)cc5)cccc34)cc2)n1` yielded a TGI [8] of 38.2 µM, a TGI [1] of 46.3 µM and a TGI [3] of 69 µM. For the same molecule, the TGI [4] was 34 µM, the TGI [6] was 66.5 µM and the TGI [7] was 39.5 µM. It also gave a TGI [9] of 64 µM and a TGI [10] of 31.2 µM.

`CN(C)CCNC(=O)c1cccc(C(=O)Nc2ccccc2)c1[N+](=O)[O-]` gave a TGI [1] of over 100 µM, a TGI [2] of over 100 µM and a TGI [3] of over 100 µM. It also gave a TGI [4] of over 100 µM, a TGI [5] of over 100 µM and a TGI [6] of over 100 µM. It also gave a TGI [9] of over 100 µM and a TGI [10] of over 100 µM.

For `CN(C)CC/C(=N\Nc1c(Cl)cccc1Cl)c1ccccc1`, the TGI [8] was 28.5 µM, the TGI [3] was 55.6 µM and the TGI [4] was 29.9 µM. It also gave a TGI [6] of 92.7 µM, a TGI [9] of 71.7 µM and a TGI [10] of 29.1 µM.

In the case of `Cc1cccc(NC(=O)C(=O)Cc2nc3ccccc3[nH]c2=O)c1C`, the TGI [8] was over 100 µM, the TGI [1] was over 100 µM and the TGI [3] was over 100 µM. It also gave a TGI [4] of over 100 µM, a TGI [6] of over 100 µM and a TGI [7] of over 100 µM. It also gave a TGI [10] of over 100 µM.

In the case of `CC(C)=CCC/C(=C/CC/C(C)=C/CCc1ccoc1)C(=O)O`, the TGI [8] was over 100 µM, the TGI [3] was over 100 µM and the TGI [4] was over 100 µM. It also gave a TGI [6] of over 100 µM, a TGI [7] of over 100 µM and a TGI [9] of over 100 µM. The TGI [10] was over 100 µM.

`CC[O-].CC[O-].O=C1c2ccccc2C(=O)c2c(O)ccc([O-])c21.O=C1c2ccccc2C(=O)c2c(O)ccc([O-])c21.[Ti+4]` was tested, and the TGI [8] was 90.4 µM, the TGI [1] was over 100 µM and the TGI [3] was over 100 µM. For the same molecule, the TGI [4] was over 100 µM, the TGI [6] was over 100 µM and the TGI [9] was over 100 µM. The TGI [10] was over 100 µM.

`CC1=C(C)CC2(CCCCC2=O)S(=O)C1` (configuration not stated) gave a TGI [8] of over 100 µM, a TGI [3] of over 100 µM and a TGI [4] of over 100 µM. The TGI [6] was over 100 µM, the TGI [7] was over 100 µM and the TGI [9] was over 100 µM. The TGI [10] was over 100 µM.

Work on `COc1ccc(C(=O)c2cc(C)c(OC)c(C)c2)c(OC)c1N(C(=O)C(Cl)Cl)C(=O)C(Cl)Cl` yielded a GI50 [1] of 0.0415 µM, a TGI [1] of over 100 µM and a GI50 [2] of 0.107 µM. The TGI [2] was over 100 µM, the GI50 [3] was 0.0283 µM and the TGI [3] was over 100 µM. It also gave a GI50 [4] of 0.0605 µM, a TGI [4] of over 100 µM and a GI50 [6] of 0.0727 µM. It also gave a TGI [6] of over 100 µM, a GI50 [7] of 0.407 µM and a TGI [7] of over 94 µM. The GI50 [9] was 0.122 µM, the TGI [9] was over 100 µM and the GI50 [10] was 0.0772 µM. The TGI [10] was over 58.8 µM.
